Results as given in ChEMBL document CHEMBL5126549, “Overview of SIRT5 as a potential therapeutic target: Structure, function and inhibitors” (Eur J Med Chem, 2022).
pIC50: −log10 of the molar value. Each block holds one molecule with its values, some of them ahead of it. *1 amine or outer side, *2 acyl side, *3 side chain or, on linkers, in order; H or OH if unused. Where a SMILES comes first, the peptide text is derived from it. Bridges are numbered along the chain shown (N, C = ends). [ ]: non-standard residue; d: D form. X1 = O=C(O)CCNC(=S)NCCCC[C@H](N[*:1])C(=O)[*:2]; Suberoyl = O=C(CCCCCCC(=O)[*:2])[*:1]

How the values were obtained:
[1] = molecular target: T1, NAD-dependent protein deacylase sirtuin-5, mitochondrial (Homo sapiens, UniProt Q9NXA8); assay: Inhibition of human recombinant SIRT5 using Benzyl-Lys(succinyl)-AMC as substrate incubated for 2 hrs by fluorescence based assay
Target sequence in this assay (Q9NXA8 whole entry): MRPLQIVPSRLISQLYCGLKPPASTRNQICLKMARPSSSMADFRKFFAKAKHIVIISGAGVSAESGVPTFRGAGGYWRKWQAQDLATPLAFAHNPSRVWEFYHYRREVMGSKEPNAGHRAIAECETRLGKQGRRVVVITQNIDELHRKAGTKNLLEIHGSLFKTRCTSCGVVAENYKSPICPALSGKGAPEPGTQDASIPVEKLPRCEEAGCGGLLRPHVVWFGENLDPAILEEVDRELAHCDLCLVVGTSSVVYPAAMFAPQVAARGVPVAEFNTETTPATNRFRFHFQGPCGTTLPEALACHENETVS

[2] = molecular target: T1, NAD-dependent protein deacylase sirtuin-5, mitochondrial; assay: Inhibition of SIRT5 (unknown origin)
Target sequence in this assay (Q9NXA8 whole entry): as above

[3] = molecular target: T1, NAD-dependent protein deacylase sirtuin-5, mitochondrial; assay: Inhibition of GST-tagged SIRT5 (unknown origin) incubated for 10 mins by HPLC based analysis
Target sequence in this assay (Q9NXA8 whole entry): as above

[4] = molecular target: T1, NAD-dependent protein deacylase sirtuin-5, mitochondrial; assay: Inhibition of GST-tagged SIRT5 (unknown origin) incubated for 5 mins by HPLC based analysis
Target sequence in this assay (Q9NXA8 whole entry): as above

[5] = molecular target: T1, NAD-dependent protein deacylase sirtuin-5, mitochondrial; assay: Inhibition of SIRT5 (unknown origin) at 100 uM relative to control
Target sequence in this assay (Q9NXA8 37-310 limits assumed): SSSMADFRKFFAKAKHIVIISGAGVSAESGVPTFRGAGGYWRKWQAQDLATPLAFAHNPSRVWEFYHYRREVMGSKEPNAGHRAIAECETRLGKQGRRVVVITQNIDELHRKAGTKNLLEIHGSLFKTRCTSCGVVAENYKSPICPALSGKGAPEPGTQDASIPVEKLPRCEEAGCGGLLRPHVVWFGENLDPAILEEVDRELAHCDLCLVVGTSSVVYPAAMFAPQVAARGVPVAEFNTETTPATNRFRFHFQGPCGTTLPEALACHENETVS

[6] = molecular target: T1, NAD-dependent protein deacylase sirtuin-5, mitochondrial; assay: Inhibition of SIRT5 (unknown origin) at 30 uM relative to control
Target sequence in this assay (Q9NXA8 37-310 limits assumed): as above

[7] = molecular target: T2, NAD-dependent protein deacetylase sirtuin-2 (Homo sapiens, UniProt Q8IXJ6); assay: Inhibition of SIRT2 (unknown origin)
T2 sequence (Q8IXJ6 whole entry): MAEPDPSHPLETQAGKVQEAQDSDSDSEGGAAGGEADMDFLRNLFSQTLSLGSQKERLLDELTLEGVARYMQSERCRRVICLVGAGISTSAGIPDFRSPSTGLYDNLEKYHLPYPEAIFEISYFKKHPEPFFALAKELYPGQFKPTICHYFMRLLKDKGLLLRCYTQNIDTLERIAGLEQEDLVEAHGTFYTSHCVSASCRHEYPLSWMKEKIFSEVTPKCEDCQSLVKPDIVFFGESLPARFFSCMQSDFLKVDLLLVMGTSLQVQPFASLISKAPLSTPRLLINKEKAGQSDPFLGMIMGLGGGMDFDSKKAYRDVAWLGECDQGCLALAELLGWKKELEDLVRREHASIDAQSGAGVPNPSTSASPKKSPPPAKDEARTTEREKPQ

[8] = molecular target: T3, NAD-dependent protein deacetylase sirtuin-1 (Homo sapiens, UniProt Q96EB6); assay: Inhibition of SIRT1 (unknown origin)
T3 sequence (Q96EB6 whole entry): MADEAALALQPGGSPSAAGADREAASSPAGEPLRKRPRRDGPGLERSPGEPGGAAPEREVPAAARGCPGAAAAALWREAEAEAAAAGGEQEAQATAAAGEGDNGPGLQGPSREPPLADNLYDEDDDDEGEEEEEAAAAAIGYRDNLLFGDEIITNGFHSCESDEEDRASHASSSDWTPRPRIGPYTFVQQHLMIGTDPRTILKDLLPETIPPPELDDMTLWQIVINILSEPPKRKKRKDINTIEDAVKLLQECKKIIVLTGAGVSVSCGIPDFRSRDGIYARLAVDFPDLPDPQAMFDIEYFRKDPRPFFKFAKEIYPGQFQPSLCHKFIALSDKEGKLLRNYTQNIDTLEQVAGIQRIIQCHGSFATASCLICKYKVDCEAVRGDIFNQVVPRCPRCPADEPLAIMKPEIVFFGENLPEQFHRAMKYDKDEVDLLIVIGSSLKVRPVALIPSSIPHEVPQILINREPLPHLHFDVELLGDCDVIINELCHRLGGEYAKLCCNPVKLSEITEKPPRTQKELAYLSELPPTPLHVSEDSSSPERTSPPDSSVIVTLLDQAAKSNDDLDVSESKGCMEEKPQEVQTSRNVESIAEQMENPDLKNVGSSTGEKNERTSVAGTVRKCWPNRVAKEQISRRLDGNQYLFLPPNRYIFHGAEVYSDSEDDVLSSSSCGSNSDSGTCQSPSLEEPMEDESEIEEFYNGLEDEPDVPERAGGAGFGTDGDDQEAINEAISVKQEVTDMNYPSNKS

[9] = molecular target: T4, NAD-dependent protein deacetylase sirtuin-3, mitochondrial (Homo sapiens, UniProt Q9NTG7); assay: Inhibition of human SIRT3 (118 to 399 aa) expressed in Escherichia coli BL21 cells
T4 sequence (Q9NTG7 whole entry): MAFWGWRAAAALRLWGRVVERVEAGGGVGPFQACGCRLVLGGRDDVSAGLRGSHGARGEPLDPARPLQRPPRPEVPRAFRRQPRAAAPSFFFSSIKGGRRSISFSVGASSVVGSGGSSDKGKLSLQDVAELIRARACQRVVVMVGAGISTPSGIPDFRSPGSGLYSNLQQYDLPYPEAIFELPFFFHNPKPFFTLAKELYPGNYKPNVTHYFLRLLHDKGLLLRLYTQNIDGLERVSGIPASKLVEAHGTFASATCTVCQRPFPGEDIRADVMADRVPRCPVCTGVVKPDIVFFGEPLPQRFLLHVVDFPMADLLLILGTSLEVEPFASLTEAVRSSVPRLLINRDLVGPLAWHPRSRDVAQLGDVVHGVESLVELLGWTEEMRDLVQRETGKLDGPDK

[10] = molecular target: T3, NAD-dependent protein deacetylase sirtuin-1; assay: Inhibition of human N-terminal His6 tagged SIRT1 (183-505-(GGGS)2-641-665 residues) expressed in Escherichia coli BL21 cells

pIC50 [1]: 5.10
SMILES: CNC(=O)c1cccc(NC(=O)/C(C#N)=C/c2ccc(-c3ccc(C(=O)O)cc3)o2)c1

pIC50 [2]: 5.19
SMILES: N=C(N)NCCCC[C@@H]1NC(=O)CCCCC(=O)NCCCC[C@@H](C(N)=O)NC(=O)[C@H](CCCCNC(=S)NCCC(=O)O)NC1=O

pIC50 [2]: 6.96
SMILES: O=C(O)CCNC(=S)NCCCC[C@H](NS(=O)(=O)c1cccc(F)c1)C(=O)N[C@@H](Cc1c[nH]c2ccccc12)C(=O)NC1CCCC1

pIC50 [3]: > 4.82
SMILES: CC(C)(C)OC(=O)NC(CCCCNC(=S)NCCC(=O)O)C(=O)Nc1cccc(O)c1 (stereo unspecified)

pIC50 [4]: 5.22
SMILES: CC(=O)N[C@H]1CCCCNC(=O)CNC(=O)CCCCCCC(=O)NC(=O)NCCCC[C@@H](C(=O)N[C@H](C(N)=O)[C@@H](C)O)NC(=O)[C@H](CCCCNC(=S)NCCC(=O)O)NC(=O)[C@H](CCCNC(=N)N)NC1=O

pIC50 [2]: 5.40
SMILES: N=C(N)NCCCC[C@@H]1NC(=O)CCNC(=O)CCC[C@@H](C(N)=O)NC(=O)[C@H](CCCCNC(=S)NCCC(=O)O)NC1=O

inhibition [5]: 52%
inhibition [6]: 35%
SMILES: O=C(NCCn1c2ccccc2c2ccccc21)Nc1ccc(C(=O)O)cc1

pIC50 [3]: > 4.82
SMILES: O=C(O)CCNC(=S)NCCCCC(NC(=O)OCc1ccccc1)C(=O)Nc1ccccc1O (stereo unspecified)

pIC50 [2]: 4.40
SMILES: CC1(C)CC[C@]2(C(=O)O)[C@H](O)C[C@]3(C)C(=CC[C@@H]4[C@@]5(C)CC[C@H](O)C(C)(C)[C@@H]5CC[C@]43C)[C@@H]2C1

pIC50 [2]: > 6.52
SMILES: O=C(O)CCNC(=S)NCCCC[C@H](NS(=O)(=O)c1cccc(F)c1)C(=O)N[C@@H](Cc1c[nH]c2ccccc12)C(=O)NC1CC1

pIC50 [2]: 4.88
SMILES: N=C(N)NCCCC[C@@H]1NC(=O)CCCCCCC(=O)NCCCC[C@@H](C(N)=O)NC(=O)[C@H](CCCCNC(=S)NCCC(=O)O)NC1=O

pIC50 [1]: 5.23
SMILES: N#C/C(=C\c1ccc(-c2ccc(C(=O)O)cc2)o1)C(=O)Nc1ccc(C#N)c(F)c1

pIC50 [1]: 5.03
SMILES: N#C/C(=C\c1ccc(-c2ccc(C(=O)O)cc2)o1)C(=O)Nc1ccc(Cl)c([N+](=O)[O-])c1

pIC50 [2]: > 6.52
SMILES: O=C(O)CCNC(=S)NCCCC[C@H](NS(=O)(=O)c1cccc(F)c1)C(=O)N[C@@H](Cc1c[nH]c2ccccc12)C(=O)NC1CCC1

pIC50 [2]: 4.15
SMILES: CC1(C)CC[C@]2(C(=O)O)CC[C@]3(C)C(=CC[C@@H]4[C@@]5(C)CC[C@H](O)C(C)(C)[C@@H]5CC[C@]43C)[C@@H]2C1 [OLEANOLIC_ACID]

pIC50 [7]: 3.59
pIC50 [2]: 5.30
pIC50 [8]: 3.59
SMILES: O=C(O)CC(=S)NCCCC[C@H](NC(=O)OCc1ccccc1)C(=O)Nc1ccccc1

pIC50 [3]: > 4.82
SMILES: CC(=O)NC(CCCCNC(=S)NCCC(=O)O)C(=O)Nc1cccc(O)c1 (stereo unspecified)

pIC50 [4]: 5.15
SMILES: CC(=O)N[C@H]1CCCCNC(=O)CCCCCCC(=O)NCCCC[C@@H](C(=O)N[C@H](C(N)=O)[C@@H](C)O)NC(=O)[C@H](CCCCNC(=S)NCCC(=O)O)NC(=O)[C@H](CCCNC(=N)N)NC1=O (Ac-KR[X1]KT-NH2; linker 1-4 via Suberoyl)

pIC50 [3]: > 4.82
SMILES: O=C(O)CCNC(=S)NCCCCC(NC(=O)OCc1ccccc1)C(=O)Nc1ccc(O)cc1 (stereo unspecified)

pIC50 [9]: 6.37
pIC50 [10]: 5.75
SMILES: CCn1c(=O)n(CC(C)C)c(=O)c2[nH]c(SSc3nc4c([nH]3)c(=O)n(CC(C)C)c(=O)n4CC)nc21

pIC50 [2]: 5.66
SMILES: N=C(N)NCCCC[C@@H]1NC(=O)CCC(=O)NCCCC[C@@H](C(N)=O)NC(=O)[C@H](CCCCNC(=S)NCCC(=O)O)NC1=O

pIC50 [1]: 4.74
SMILES: CC1=NN(c2ccc(C)c(Cl)c2)C(=O)/C1=C\c1ccc(-c2ccc(C(=O)O)cc2)o1
